Data on three compounds can be found in article PMC3548978 (Analytical and bioanalytical chemistry, 2012).

What all share (type): biochemical
The target in one assay is p300 (Homo sapiens, UniProt Q09472). The assay can be described thus: radioisotope […]Ac-CoA HAT assay, […] probe, […] activity lost. The conditions noted are these: read-out: % activity lost at 50 μM.
Assay [1] deals with T1, PCAF (Homo sapiens, UniProt Q92831). The assay can be described thus: radioisotope […]Ac-CoA HAT assay, […] probe.
For a further assay, the target named is Tip60 (Homo sapiens, UniProt Q92993). The assay can be described thus: CPM fluorescent HAT assay with H4-20 and Ac-CoA.
Assay [2] addresses T1, PCAF. The assay can be described thus: CPM fluorescent HAT assay with H3-20 and Ac-CoA.

SMILES strings stand for the structures.

p300, sequence (Q09472 2-2414): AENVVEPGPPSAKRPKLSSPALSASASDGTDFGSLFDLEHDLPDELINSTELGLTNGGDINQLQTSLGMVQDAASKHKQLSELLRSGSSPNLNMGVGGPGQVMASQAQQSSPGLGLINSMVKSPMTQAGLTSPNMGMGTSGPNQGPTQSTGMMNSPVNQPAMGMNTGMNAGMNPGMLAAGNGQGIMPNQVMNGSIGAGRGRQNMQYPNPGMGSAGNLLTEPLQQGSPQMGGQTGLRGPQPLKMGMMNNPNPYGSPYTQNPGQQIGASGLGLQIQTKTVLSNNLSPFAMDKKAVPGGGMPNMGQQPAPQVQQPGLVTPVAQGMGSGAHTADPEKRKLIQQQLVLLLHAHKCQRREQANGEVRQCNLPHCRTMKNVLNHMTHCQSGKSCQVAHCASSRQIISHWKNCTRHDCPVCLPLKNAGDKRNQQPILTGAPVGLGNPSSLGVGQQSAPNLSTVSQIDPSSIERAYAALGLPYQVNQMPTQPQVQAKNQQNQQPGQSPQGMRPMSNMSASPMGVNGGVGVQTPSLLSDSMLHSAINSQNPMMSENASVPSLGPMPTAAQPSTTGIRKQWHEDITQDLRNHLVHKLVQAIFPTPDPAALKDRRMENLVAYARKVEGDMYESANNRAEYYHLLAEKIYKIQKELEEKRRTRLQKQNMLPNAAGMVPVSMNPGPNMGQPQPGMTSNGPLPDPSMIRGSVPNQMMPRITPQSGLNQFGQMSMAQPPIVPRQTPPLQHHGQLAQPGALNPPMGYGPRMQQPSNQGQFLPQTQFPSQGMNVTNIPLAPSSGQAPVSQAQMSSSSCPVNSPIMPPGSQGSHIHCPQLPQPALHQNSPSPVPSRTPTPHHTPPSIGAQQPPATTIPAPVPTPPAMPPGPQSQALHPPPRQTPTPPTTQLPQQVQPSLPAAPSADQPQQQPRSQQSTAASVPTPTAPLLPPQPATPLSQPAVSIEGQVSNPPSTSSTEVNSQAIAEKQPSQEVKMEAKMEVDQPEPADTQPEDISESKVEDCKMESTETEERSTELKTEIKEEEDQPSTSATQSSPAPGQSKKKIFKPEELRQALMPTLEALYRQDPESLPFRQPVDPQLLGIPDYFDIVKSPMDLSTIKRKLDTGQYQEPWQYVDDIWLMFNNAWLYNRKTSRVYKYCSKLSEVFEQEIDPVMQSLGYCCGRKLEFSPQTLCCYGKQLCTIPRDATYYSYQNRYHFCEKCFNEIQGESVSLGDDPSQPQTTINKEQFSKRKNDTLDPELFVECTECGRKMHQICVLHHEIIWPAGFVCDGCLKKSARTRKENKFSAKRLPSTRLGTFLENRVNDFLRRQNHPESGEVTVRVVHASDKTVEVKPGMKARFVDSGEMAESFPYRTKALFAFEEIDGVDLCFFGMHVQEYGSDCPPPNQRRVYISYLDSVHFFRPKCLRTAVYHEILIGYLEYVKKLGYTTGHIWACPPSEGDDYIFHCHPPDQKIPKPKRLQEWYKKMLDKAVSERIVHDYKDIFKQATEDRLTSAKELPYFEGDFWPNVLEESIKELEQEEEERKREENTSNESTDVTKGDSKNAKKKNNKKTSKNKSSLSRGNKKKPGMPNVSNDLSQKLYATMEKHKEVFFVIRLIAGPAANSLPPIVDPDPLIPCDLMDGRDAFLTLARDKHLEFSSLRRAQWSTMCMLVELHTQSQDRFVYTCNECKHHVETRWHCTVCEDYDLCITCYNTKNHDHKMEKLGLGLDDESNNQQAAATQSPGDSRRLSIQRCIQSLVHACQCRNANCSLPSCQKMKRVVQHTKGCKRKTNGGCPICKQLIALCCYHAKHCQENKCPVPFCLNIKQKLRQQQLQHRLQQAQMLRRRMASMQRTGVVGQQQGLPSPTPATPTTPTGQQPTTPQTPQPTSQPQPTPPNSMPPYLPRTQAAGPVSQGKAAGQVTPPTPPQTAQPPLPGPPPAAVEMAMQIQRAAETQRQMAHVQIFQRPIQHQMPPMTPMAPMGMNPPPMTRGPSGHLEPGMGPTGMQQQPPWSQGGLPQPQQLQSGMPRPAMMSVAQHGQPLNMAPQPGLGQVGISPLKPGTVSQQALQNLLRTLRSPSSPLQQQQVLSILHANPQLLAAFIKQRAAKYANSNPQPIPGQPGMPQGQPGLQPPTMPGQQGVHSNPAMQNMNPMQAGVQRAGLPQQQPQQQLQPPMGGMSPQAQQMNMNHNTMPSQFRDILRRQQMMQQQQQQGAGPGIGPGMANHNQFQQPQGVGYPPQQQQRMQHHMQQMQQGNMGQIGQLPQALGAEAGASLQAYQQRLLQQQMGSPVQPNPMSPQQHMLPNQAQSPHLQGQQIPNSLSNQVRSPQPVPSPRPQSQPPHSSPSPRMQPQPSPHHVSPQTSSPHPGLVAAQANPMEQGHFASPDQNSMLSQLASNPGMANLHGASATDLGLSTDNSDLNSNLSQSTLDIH
T1 sequence (Q92831 493-658): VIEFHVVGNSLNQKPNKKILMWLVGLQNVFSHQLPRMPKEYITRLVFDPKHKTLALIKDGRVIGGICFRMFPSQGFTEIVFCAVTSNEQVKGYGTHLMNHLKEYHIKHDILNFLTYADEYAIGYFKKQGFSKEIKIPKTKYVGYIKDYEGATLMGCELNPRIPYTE
Tip60, sequence (Q92993 whole entry): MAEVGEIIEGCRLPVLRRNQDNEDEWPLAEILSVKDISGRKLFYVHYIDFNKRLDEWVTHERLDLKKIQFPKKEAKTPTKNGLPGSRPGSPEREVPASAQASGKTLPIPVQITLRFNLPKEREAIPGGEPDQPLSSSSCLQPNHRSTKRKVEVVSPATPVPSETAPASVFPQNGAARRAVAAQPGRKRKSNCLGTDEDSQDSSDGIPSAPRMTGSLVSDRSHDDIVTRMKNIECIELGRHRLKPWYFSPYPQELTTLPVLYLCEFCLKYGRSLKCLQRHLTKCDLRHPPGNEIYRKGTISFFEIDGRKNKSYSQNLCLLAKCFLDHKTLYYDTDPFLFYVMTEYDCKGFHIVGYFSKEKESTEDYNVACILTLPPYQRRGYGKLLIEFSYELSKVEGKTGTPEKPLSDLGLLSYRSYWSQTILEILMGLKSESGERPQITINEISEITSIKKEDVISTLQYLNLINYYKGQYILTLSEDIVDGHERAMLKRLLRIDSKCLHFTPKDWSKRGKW

As to `O=C1C=CC(=O)N1c1ccc2ccc3cccc4ccc1c2c34` [P28], the inhibition at 50 µM at p300 was > 90%.
As to `CCN(CC)c1ccc2c(C)c(-c3ccc(N4C(=O)C=CC4=O)cc3)c(=O)oc2c1` [CPM], the “radioisotope [14C]Ac-CoA HAT assay, 50 μM probe” value on PCAF [1] is “Several compounds (e.g. CPM and P28) also considerably inhibited the activity of PCAF”. In addition, the inhibition at 50 µM at p300 is > 90%.
Turning to `CC(=O)N[C@@H](CCCCNC(=O)CSCCNC(=O)CCNC(=O)[C@H](O)C(C)(C)COP(=O)(O)OP(=O)(O)OC[C@H]1O[C@@H](n2cnc3c(N)ncnc32)[C@H](O)[C@@H]1OP(=O)(O)O)C(N)=O` [Lys-CoA], the half-inhibitory concentration (IC50) at Tip60 was 26 µM; against PCAF [2], 96 µM.

One may read the IC50 as the concentration needed to halve the response being measured.
